Results taken from patent US20220409727A1, “Metal Complexes Bearing Bisstyryl-Bipyridine Ligand and Their Use as Photosensitizer Agent in One and Two-Photon Photodynamic Therapy” (Paris Sciences et Lettres, priority 2019, published 2022).
Like-named read-outs stand apart in the source and are kept apart here.

How the values were obtained:
[1] = system: human cervical carcinoma (HeLa) cells; test: (Photo-)cytotoxicity on 2D cell monolayers, resazurin assay, HeLa; assay type: cell-based; details: for PI (480 nm): dark vs 480 nm (10 min, 3.1 J/cm^2); for PI (540 nm): dark vs 540 nm (40 min, 9.5 J/cm^2)
Source text: Before an experiment, the cells were passaged three times.

[2] = system: non-cancerous retinal pigment epithelium (RPE-1) cells; test: (Photo-)cytotoxicity on 2D cell monolayers, resazurin assay, RPE-1; details: for PI (480 nm): RPE-1, dark vs 480 nm (10 min, 3.1 J/cm^2); for PI (540 nm): RPE-1, dark vs 540 nm (40 min, 9.5 J/cm^2);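 on all read-outs here: cells exposed to compound 4 h, medium exchanged, then irradiated or kept dark, 44 h further growth, viability by resorufin fluorescence (ex 540 nm, em 590 nm)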
HeLa MCTS = test: (Photo-)cytotoxicity on 3D multicellular tumor spheroids (ATP, CellTiter-Glo 3D); assay type: cell-based, human; details: for phototoxicity in HeLa MCTS: 1 Photon and 2 Photons irradiation, compared with compounds 4-6, 8, 10; for PI (1-Photon): dark vs 1-Photon irradiation (500 nm, 10 J/cm^2); for PI (2-Photon): dark vs 2-Photon irradiation (800 nm, 10 J/cm^2)
Method in brief: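 HeLa spheroids grown on agarose from 3000 cells/well over 2–3 days, then treated with compound (2% DMSO) for 12 h. Spheroids kept dark or irradiated at 500 nm one-photon or 800 nm two-photon (10 J/cm^2 each), then incubated 48 h more. Viability read as ATP by luminescence.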

[3] = system: human glioblastoma astrocytoma (U373) cells
[4] = system: mouse colon carcinoma (CT-26) cells; test: (Photo-)cytotoxicity on 2D cell monolayers, resazurin assay, CT-26; details: for PI (480 nm): CT-26, dark vs 480 nm (10 min, 3.1 J/cm^2); for PI (540 nm): CT-26, dark vs 540 nm (40 min, 9.5 J/cm^2); for IC50: compounds 1-3 as chloride salts
Protocol: The human glioblastoma astrocytoma (U373) cell line was cultured in MEM medium supplemented with 10% FBS, 1% NEAA (non-essential amino-acids) and 1% penicillin/streptomycin. […] The human retinal epithelial cells (RPE-1, non-cancerous cells immortalized with hTERT) were cultured in DMEM-F12 medium supplemented with 10% FBS and 1% penicillin/streptomycin. All cell lines were obtained from the American Type Culture Collection (ATCC) and cultured at 37° C. and 5% CO2. Before an experiment, the cells were passaged three times.
The cytotoxicity of the compounds was assessed by measuring cell viability using a fluorometric resazurin assay. The cultivated cells were seeded in triplicates in 96 well plates with a density of 4000 cells per well in 100 μL of media. After 24 h, the medium was removed and the cells were treated with increasing concentrations of the compound diluted in cell media achieving a total volume of 200 μL. The cells were incubated with the compound for 4 h. After this time, the media was removed and replaced with 200 μL of fresh medium. For the phototoxicity studies, the cells were exposed to light with an Atlas Photonics LUMOS BIO irradiator. Each well was constantly illuminated with either a 480 nm or 540 nm irradiation. During this time, the temperature was maintained constantly at 37° C. The cells were grown in the incubator for additional 44 h. For the determination of the dark cytotoxicity, the cells were not irradiated and after the medium exchange directly incubated for 44 h. After this time, the medium was replaced with fresh medium containing resazurin with a final concentration of 0.2 mg/mL. After 4 h incubation, the amount of the fluorescent product resorufin was determined upon excitation at 540 nm and measurement its emission at 590 nm using a SpectraMax M2 Microplate Reader (Molecular Devices).
The obtained data was analyzed with the GraphPad Prism software.

[5] = Singlet oxygen measurement, indirect evaluation (RNO absorbance); assay type: physicochemical
Method in brief: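 Complex (absorbance 0.2 in air-saturated CH3CN with RNO 24 μM, imidazole 12 mM; or 0.1 in air-saturated PBS with RNO 20 μM, histidine 10 mM) irradiated for varying times. RNO bleaching (A0−A) at 420 nm (CH3CN) or 440 nm (PBS) plotted against time; slope with absorbance correction gives singlet oxygen quantum yield.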

[6] = Singlet oxygen measurement, direct evaluation (1O2 luminescence at 1270 nm); assay type: physicochemical
Method in brief: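 Air-saturated CH3CN or D2O solutions (A450 = 0.2) irradiated with 450 nm LED at varied intensities; 1O2 emission at 1270 nm recorded 1100–1400 nm with cooled germanium detector. Quantum yield from slope of integrated peak area versus intensity, absorbance-corrected, relative to Rose Bengal (Φ=76%).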

[7] = dark, 4 h incubation, compounds 1-3 as chloride salts, read-out: IC50 dark
[8] = read-out: IC50 480 nm (10 min, 3.1 J/cm^2), irradiation 480 nm (10 min, 3.1 J/cm^2), compounds 1-3 as chloride salts
[9] = read-out: IC50 540 nm (40 min, 9.5 J/cm^2), irradiation 540 nm (40 min, 9.5 J/cm^2), compounds 1-3 as chloride salts
[10] = 1-Photon irradiation (500 nm, 10 J/cm^2), read-out: IC50 1-Photon irradiation (500 nm, 10 J/cm^2)
[11] = 2-Photon irradiation (800 nm, 10 J/cm^2, section interval of 5 μm), read-out: IC50 2-Photon irradiation (800 nm, 10 J/cm^2)
[12] = dark, 12 h incubation, read-out: IC50 dark
[13] = read-out: IC50 540 nm (40 min, 9.5 J/cm^2), CT-26, irradiation 540 nm (40 min, 9.5 J/cm^2)
[14] = read-out: IC50 dark, CT-26, dark, 4 h incubation

| Molecule | PI (480 nm) [1] | PI (540 nm) [1] | IC50 [1, 7] | IC50 [1, 8] | IC50 [1, 9] | PI (480 nm) [2] | PI (540 nm) [2] | IC50 (HeLa MCTS; [10]) | IC50 (HeLa MCTS; [11]) | PI (1-Photon) (HeLa MCTS) | PI (2-Photon) (HeLa MCTS) | IC50 (HeLa MCTS; [12]) | IC50 [3] | PI (480 nm) [4] | PI (540 nm) [4] | IC50 [4, 13] | IC50 [4, 14] | Singlet oxygen quantum yield, indirect 450 nm CH3CN ([5]; CH3CN) | Singlet oxygen quantum yield, indirect 450 nm PBS [5] | Singlet oxygen quantum yield, indirect 540 nm CH3CN ([5]; CH3CN) | also measured |
| --- | --- | --- | --- | --- | --- | --- | --- | --- | --- | --- | --- | --- | --- | --- | --- | --- | --- | --- | --- | --- | --- |
| COc1ccc(C=Cc2ccnc(-c3cc(C=Cc4ccc(OC)cc4)ccn3)c2)cc1.F[P-](F)(F)(F)(F)F.F[P-](F)(F)(F)(F)F.[Ru+2].c1ccc(-c2ccnc3c2ccc2c(-c4ccccc4)ccnc23)cc1.c1ccc(-c2ccnc3c2ccc2c(-c4ccccc4)ccnc23)cc1 [Compound 11, [Ru(4,7-Diphenyl-1,10-phenanthroline)2((E,E′)-4,4′-Bis[p-methoxystyryl]-2,2′-bipyridine)][PF6]2] | 27.5 | 23.6 | 16.5 ± 0.8 µM | 0.6 ± 0.3 µM | 0.7 ± 0.5 µM | 23.1 | 29.7 | 3.8 ± 0.4 µM | 0.8 ± 0.5 µM | 7.7 | 36.6 | 29.3 ± 2.9 µM | 0.7 ± 0.3 µM | 17.2 | 14.3 | 0.6 ± 0.2 µM | 8.6 ± 0.9 µM | 73% | 7% | 72% | phototoxicity in HeLa MCTS (HeLa MCTS): much higher phototoxicity; Singlet oxygen quantum yield, indirect 540 nm PBS [5]: 5%; Singlet oxygen quantum yield, direct 450 nm CH3CN [6]: 66% |
| [Ru(bipy)2((E,E′)-4,4′-Bis[p-(N,N-methoxy)styryl]-2,2′-bipyridine)][PF6]2 [Compound 7] | >83.3 | >66.7 | > 100 µM | 1.2 ± 0.4 µM | 1.5 ± 0.5 µM | >32.3 | >11.9 | 6.8 ± 0.2 µM | 1.4 ± 0.2 µM | >44.1 | >214.3 | > 300 µM | 13.5 ± 1.6 µM | >142.9 | >111.1 | 0.9 ± 0.3 µM | > 100 µM | 77% | 11% | 68% | phototoxicity in HeLa MCTS (HeLa MCTS): much higher phototoxicity; singlet oxygen quantum yields in CH3CN ([5]; CH3CN, range over direct and indirect methods, 450 and 540 nm): 68-77%; singlet oxygen quantum yields in an aqueous solution ([5]; aqueous solution (PBS), range over 450 and 540 nm): 10-11%; Singlet oxygen quantum yield, indirect 540 nm PBS [5]: 10%; Singlet oxygen quantum yield, direct 450 nm CH3CN [6]: 75% |
| CN(C)c1ccc(/C=C/c2ccnc(-c3cc(/C=C/c4ccc(N(C)C)cc4)ccn3)c2)cc1.F[P-](F)(F)(F)(F)F.F[P-](F)(F)(F)(F)F.[Ru+2].c1ccc(-c2ccccn2)nc1.c1ccc(-c2ccccn2)nc1 [Compound 6, [Ru(bipy)2((E,E′)-4,4′-Bis[p-(N,N-dimethylamino)styryl]-2,2′-bipyridine)][PF6]2] | >18.9 | >17.2 | > 100 µM | 5.3 ± 0.6 µM | 5.8 ± 0.9 µM | >13.7 | >12.3 | 33.8 ± 3.4 µM | 26.5 ± 2.9 µM | >8.9 | >11.3 | > 300 µM | 10.7 ± 1.9 µM | >41.7 | >32.3 | 3.1 ± 0.3 µM | > 100 µM | 53% | 2% | 38% | Singlet oxygen quantum yield, indirect 540 nm PBS [5]: 2%; Singlet oxygen quantum yield, direct 450 nm CH3CN [6]: 46% |
| CN(C)c1ccc(/C=C/c2ccnc(-c3cc(/C=C/c4ccc(N(C)C)cc4)ccn3)c2)cc1.F[P-](F)(F)(F)(F)F.F[P-](F)(F)(F)(F)F.[Ru+2].c1cnc2c(c1)ccc1cccnc12.c1cnc2c(c1)ccc1cccnc12 [Compound 8, [Ru(phen)2((E,E′)-4,4′-Bis[p-(N,N-dimethylamino)styryl]-2,2′-bipyridine)][PF6]2] | >7.9 | >8.8 | > 100 µM | 12.6 ± 1.3 µM | 11.4 ± 1.5 µM | >10.9 | >6.4 | 32.6 ± 2.5 µM | 27.8 ± 3.1 µM | >9.2 | >10.8 | > 300 µM | 13.3 ± 2.4 µM | >12.2 | >12.8 | 7.8 ± 0.9 µM | > 100 µM | 62% | 3% | 57% | Singlet oxygen quantum yield, indirect 540 nm PBS [5]: 2%; Singlet oxygen quantum yield, direct 450 nm CH3CN [6]: 59% |
| COc1ccc(/C=C/c2ccnc(-c3cc(/C=C/c4ccc(OC)cc4)ccn3)c2)cc1.F[P-](F)(F)(F)(F)F.F[P-](F)(F)(F)(F)F.[Ru+2].c1cnc2c(c1)ccc1cccnc12.c1cnc2c(c1)ccc1cccnc12 [Compound 9, [Ru(phen)2((E,E′)-4,4′-Bis[p-methoxystyryl]-2,2′-bipyridine)][PF6]2] | >66.7 | >83.3 | > 100 µM | 1.5 ± 0.6 µM | 1.2 ± 0.7 µM | >41.7 | >47.6 | 7.5 ± 0.2 µM | 1.2 ± 0.3 µM | >40.0 | >250.0 | > 300 µM | 2.1 ± 0.7 µM | >90.9 | >111.1 | 0.9 ± 0.4 µM | > 100 µM | 82% | 9% | 79% | phototoxicity in HeLa MCTS (HeLa MCTS): much higher phototoxicity; Singlet oxygen quantum yield, indirect 540 nm PBS [5]: 8%; Singlet oxygen quantum yield, direct 450 nm CH3CN [6]: 75% |
